Measured values as given in PubChem BioAssay AID1918996 (Molecular Pharmacology Branch, DTP, NCI, 2023).

System: 349418-098-R-PDC complex spheroid growth
Assay: Anticancer human tumor 349418-098-R-PDC patient-derived lung adenocarcinoma cell line growth inhibition [AhR]
Conditions: for IC50: curve of first compound; for viability, T/C: stronger effect = lower value; active = viability on the fitted dose curve at most 10% of control; inactive = the rest
In short: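 Spheroids combined tumor cells with HUVEC endothelial cells and human MSCs as stroma. AhR antagonists were paired with standard or investigational drugs, each dosed in half-log steps down from near clinical Cmax, or from 10 microM where Cmax was unknown.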

[1] = second compound 0.1 µM, first compound 0.0316 µM
[2] = second compound 0.1 µM, first compound 0.1 µM
[3] = second compound 0.1 µM, first compound 0.316 µM
[4] = second compound 0.1 µM, first compound 1 µM
[5] = second compound 0.1 µM, first compound 3.16 µM
[6] = second compound 0.1 µM, first compound 10 µM
[7] = second compound 0.316 µM, first compound 0.0316 µM
[8] = second compound 0.316 µM, first compound 0.1 µM
[9] = second compound 0.316 µM, first compound 0.316 µM
[10] = second compound 0.316 µM, first compound 1 µM
[11] = second compound 0.316 µM, first compound 3.16 µM
[12] = second compound 0.316 µM, first compound 10 µM
[13] = second compound 1 µM, first compound 0.0316 µM
[14] = second compound 1 µM, first compound 0.1 µM
[15] = second compound 1 µM, first compound 0.316 µM
[16] = second compound 1 µM, first compound 1 µM
[17] = second compound 1 µM, first compound 3.16 µM
[18] = second compound 1 µM, first compound 10 µM
[19] = second compound 3.16 µM, first compound 0.0316 µM
[20] = second compound 3.16 µM, first compound 0.1 µM
[21] = second compound 3.16 µM, first compound 0.316 µM
[22] = second compound 3.16 µM, first compound 1 µM
[23] = second compound 3.16 µM, first compound 3.16 µM
[24] = second compound 3.16 µM, first compound 10 µM
[25] = second compound 10 µM, first compound 0.0316 µM
[26] = second compound 10 µM, first compound 0.1 µM
[27] = second compound 10 µM, first compound 0.316 µM
[28] = second compound 10 µM, first compound 1 µM
[29] = second compound 10 µM, first compound 3.16 µM
[30] = second compound 10 µM, first compound 10 µM
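Also: spheroids exposed to agents for seven days before luminescence viability read.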
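For viability, T/C in this document: spheroids also contain HUVEC endothelial cells and human MSC stroma.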

CC(C)c1c(-c2ccccc2)nc2c(C#N)c[nH]n2c1=O + Cc1cncc(-c2nc(NCCc3c[nH]c4ccccc34)c3ncn(C(C)C)c3n2)c1
< 31.6 nM: IC50 (second compound 3.16 µM) | IC50 (second compound 10 µM)
> 10000 nM: IC50 (second compound 0.1 µM) | IC50 (second compound 0.316 µM) | IC50 (second compound 1 µM)
inactive: viability, T/C [1] 102% | viability, T/C [2] 94.6% | viability, T/C [3] 97.9% | viability, T/C [4] 97.2% | viability, T/C [5] 97% | viability, T/C [6] 101% | viability, T/C [7] 96.8% | viability, T/C [8] 82.4% | viability, T/C [9] 105% | viability, T/C [10] 93.2% | viability, T/C [11] 83.3% | viability, T/C [12] 95.2% | viability, T/C [13] 94.1% | viability, T/C [14] 87% | viability, T/C [15] 83.6% | viability, T/C [16] 85.9% | viability, T/C [17] 78.6% | viability, T/C [18] 83.7% | viability, T/C [19] 15.8% | viability, T/C [20] 16.5% | viability, T/C [21] 17.4% | viability, T/C [22] 12.2% | viability, T/C [23] 11.3% | viability, T/C [24] 12.6%
active: viability, T/C [25] 0.96% | viability, T/C [26] 1.33% | viability, T/C [27] 1.19% | viability, T/C [28] 0.58% | viability, T/C [29] 0.81% | viability, T/C [30] 1.09%

CC1COCCN1c1cc(-c2ccnn2C)c2ccnc(-c3ccn[nH]3)c2n1 (stereo not given) + Cc1cncc(-c2nc(NCCc3c[nH]c4ccccc34)c3ncn(C(C)C)c3n2)c1
153 nM: IC50 (second compound 0.1 µM)
inactive: viability, T/C (second compound 0.1 µM, first compound 0.00316 µM) 105% | viability, T/C (second compound 0.1 µM, first compound 0.01 µM) 105% | viability, T/C [1] 99.7% | viability, T/C [2] 71.6% | viability, T/C [3] 13.1% | viability, T/C (second compound 0.316 µM, first compound 0.00316 µM) 90.9% | viability, T/C (second compound 0.316 µM, first compound 0.01 µM) 92.4% | viability, T/C [7] 91.4% | viability, T/C [8] 68.5% | viability, T/C [9] 15.7% | viability, T/C (second compound 1 µM, first compound 0.00316 µM) 74.1% | viability, T/C (second compound 1 µM, first compound 0.01 µM) 81.4% | viability, T/C [13] 81.5% | viability, T/C [14] 50.1% | viability, T/C [15] 13.2% | viability, T/C [16] 8.54% | viability, T/C (second compound 3.16 µM, first compound 0.00316 µM) 14.2% | viability, T/C (second compound 3.16 µM, first compound 0.01 µM) 15.1% | viability, T/C [19] 12.4%
150 nM: IC50 (second compound 0.316 µM)
101 nM: IC50 (second compound 1 µM)
< 3.16 nM: IC50 (second compound 3.16 µM) | IC50 (second compound 10 µM)
active: viability, T/C [4] 7.48% | viability, T/C [10] 7.2% | viability, T/C [20] 7.18% | viability, T/C [21] 6.8% | viability, T/C [22] 5.72% | viability, T/C (second compound 10 µM, first compound 0.00316 µM) 0.74% | viability, T/C (second compound 10 µM, first compound 0.01 µM) 0.66% | viability, T/C [25] 0.7% | viability, T/C [26] 0.73% | viability, T/C [27] 0.69% | viability, T/C [28] 1.49%

COc1ccc([C@@H](O)c2cc(-c3ncnc4cc(N5CCOCC5)ccc34)c(F)cc2Cl)nn1 + Cc1cncc(-c2nc(NCCc3c[nH]c4ccccc34)c3ncn(C(C)C)c3n2)c1
inactive: viability, T/C [1] 100% | viability, T/C [2] 101% | viability, T/C [3] 92.5% | viability, T/C [4] 88.8% | viability, T/C [5] 58.1% | viability, T/C [6] 16.8% | viability, T/C [7] 103% | viability, T/C [8] 94.7% | viability, T/C [9] 89.9% | viability, T/C [10] 93.3% | viability, T/C [11] 58.8% | viability, T/C [12] 14.1% | viability, T/C [13] 81% | viability, T/C [14] 79.7% | viability, T/C [15] 80.5% | viability, T/C [16] 68.2% | viability, T/C [17] 57.9% | viability, T/C [18] 19.4% | viability, T/C [19] 16.5% | viability, T/C [20] 16.7% | viability, T/C [21] 12.7% | viability, T/C [22] 12.5% | viability, T/C [23] 11.9% | viability, T/C [24] 9.7%
4010 nM: IC50 (second compound 0.1 µM)
3970 nM: IC50 (second compound 0.316 µM)
active: viability, T/C [25] 0.93% | viability, T/C [26] 0.92% | viability, T/C [27] 1.03% | viability, T/C [28] 1.37% | viability, T/C [29] 1.91% | viability, T/C [30] 3.18%
< 31.6 nM: IC50 (second compound 3.16 µM) | IC50 (second compound 10 µM)
3840 nM: IC50 (second compound 1 µM)

O=C(C=Cn1cnc(-c2cc(C(F)(F)F)cc(C(F)(F)F)c2)n1)NNc1cnccn1 + Cc1cncc(-c2nc(NCCc3c[nH]c4ccccc34)c3ncn(C(C)C)c3n2)c1
active: viability, T/C (second compound 0.1 µM, first compound 0.949 µM) 7.84% | viability, T/C (second compound 0.1 µM, first compound 3 µM) 4.75% | viability, T/C (second compound 0.316 µM, first compound 0.949 µM) 7.07% | viability, T/C (second compound 0.316 µM, first compound 3 µM) 4.9% | viability, T/C (second compound 1 µM, first compound 0.3 µM) 9.9% | viability, T/C (second compound 1 µM, first compound 0.949 µM) 9.14% | viability, T/C (second compound 1 µM, first compound 3 µM) 5.61% | viability, T/C (second compound 3.16 µM, first compound 0.3 µM) 8.17% | viability, T/C (second compound 3.16 µM, first compound 0.949 µM) 7.95% | viability, T/C (second compound 3.16 µM, first compound 3 µM) 5.5% | viability, T/C (second compound 10 µM, first compound 0.00949 µM) 3.16% | viability, T/C (second compound 10 µM, first compound 0.03 µM) 2.76% | viability, T/C (second compound 10 µM, first compound 0.0949 µM) 2.56% | viability, T/C (second compound 10 µM, first compound 0.3 µM) 2.42% | viability, T/C (second compound 10 µM, first compound 0.949 µM) 1.78% | viability, T/C (second compound 10 µM, first compound 3 µM) 1.96%
< 9.49 nM: IC50 (second compound 3.16 µM) | IC50 (second compound 10 µM)
inactive: viability, T/C (second compound 0.1 µM, first compound 0.00949 µM) 109% | viability, T/C (second compound 0.1 µM, first compound 0.03 µM) 76.7% | viability, T/C (second compound 0.1 µM, first compound 0.0949 µM) 34.4% | viability, T/C (second compound 0.1 µM, first compound 0.3 µM) 10.9% | viability, T/C (second compound 0.316 µM, first compound 0.00949 µM) 103% | viability, T/C (second compound 0.316 µM, first compound 0.03 µM) 89.4% | viability, T/C (second compound 0.316 µM, first compound 0.0949 µM) 42.3% | viability, T/C (second compound 0.316 µM, first compound 0.3 µM) 11.7% | viability, T/C (second compound 1 µM, first compound 0.00949 µM) 95.8% | viability, T/C (second compound 1 µM, first compound 0.03 µM) 69.8% | viability, T/C (second compound 1 µM, first compound 0.0949 µM) 25.5% | viability, T/C (second compound 3.16 µM, first compound 0.00949 µM) 31.8% | viability, T/C (second compound 3.16 µM, first compound 0.03 µM) 20.6% | viability, T/C (second compound 3.16 µM, first compound 0.0949 µM) 14.7%
50.2 nM: IC50 (second compound 1 µM)
61.5 nM: IC50 (second compound 0.1 µM)
78.7 nM: IC50 (second compound 0.316 µM)
